Experimental data: the supplement of paper PMC10307832

Tests used:
Test in all cases: relative viability (nuclei count vs DMSO), 5 days (fraction); higher = more cells survive
NCI-H1395 = test system: NCI-H1395
Summary of the method: (§1)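 Relative viability is defined as nuclei in treated wells over nuclei in vehicle wells. Duplicate plates were run and medians reported. Lung cancer cell lines in 1536-well plates were dosed by pin tool one day after seeding, with one drug or with a fixed anchor-drug dose plus five library-drug doses (not always all listed) in √10 steps, and nuclei were counted after 5 days.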

NCI-H2009 = test system: NCI-H2009
Summary of the method: as §1

SW 1573 = test system: SW 1573
Summary of the method: as §1

HCC-366 = test system: HCC-366
Summary of the method: as §1

NCI-H727 = test system: NCI-H727
Summary of the method: as §1

NCI-H23 = test system: NCI-H23
Summary of the method: as §1

NCI-H2228 = test system: NCI-H2228
Summary of the method: as §1

HCC-827 = test system: HCC-827
Summary of the method: as §1

CAL-12T = test system: CAL-12T
Summary of the method: as §1

LCLC-103H = test system: LCLC-103H
Summary of the method: as §1

HOP-62 = test system: HOP-62
Summary of the method: as §1

NCI-H460 = test system: NCI-H460
Summary of the method: as §1

NCI-H1355 = test system: NCI-H1355
Summary of the method: as §1

EMC-BAC-2 = test system: EMC-BAC-2
Summary of the method: as §1

COR-L 105 = test system: COR-L 105
Summary of the method: as §1

NCI-H1755 = test system: NCI-H1755
Summary of the method: as §1

HARA = test system: HARA
Summary of the method: as §1

NCI-H1975 = test system: NCI-H1975
Summary of the method: as §1

NCI-H1915 = test system: NCI-H1915
Summary of the method: as §1

NCI-H1437 = test system: NCI-H1437
Summary of the method: as §1

SK-LU-1 = test system: SK-LU-1
Summary of the method: as §1

A-427 = test system: A-427
Summary of the method: as §1

`O=C(O)c1ccc(-c2c[nH]c3ncc(-c4ccccc4)cc23)cc1C1CCCC1` + COc1cc2c(Oc3ccc(NC(=O)C4(C(=O)Nc5ccc(F)cc5)CC4)cc3F)ccnc2cc1OCCCN1CCOCC1 [Foretinib] (partner 0.25 µM) was tested, and the relative viability (NCI-H1395; first compound 0.04 µM) was 0.983, the relative viability (NCI-H1395; first compound 0.1265 µM) was 1.05 and the relative viability (NCI-H1395; first compound 0.4 µM) was 1.01. It also gave a relative viability (NCI-H1395; first compound 1.265 µM) of 0.944, a relative viability (NCI-H2009; first compound 0.04 µM) of 1.22 and a relative viability (NCI-H2009; first compound 0.1265 µM) of 1.22. The relative viability (NCI-H2009; first compound 0.4 µM) was 1.22, the relative viability (NCI-H2009; first compound 1.265 µM) was 0.968 and the relative viability (SW 1573; first compound 0.04 µM) was 0.977. For the same compound, the relative viability (SW 1573; first compound 0.1265 µM) was 0.901, the relative viability (SW 1573; first compound 0.4 µM) was 0.902 and the relative viability (SW 1573; first compound 1.265 µM) was 0.791. It also gave a relative viability (HCC-366; first compound 0.04 µM) of 0.948, a relative viability (HCC-366; first compound 0.1265 µM) of 0.951 and a relative viability (HCC-366; first compound 0.4 µM) of 0.894. For the same compound, the relative viability (HCC-366; first compound 1.265 µM) was 0.881, the relative viability (NCI-H727; first compound 0.04 µM) was 1.2 and the relative viability (NCI-H727; first compound 0.1265 µM) was 0.823. For the same compound, the relative viability (NCI-H727; first compound 0.4 µM) was 0.754, the relative viability (NCI-H727; first compound 1.265 µM) was 0.944 and the relative viability (NCI-H23; first compound 0.04 µM) was 1.1. The relative viability (NCI-H23; first compound 0.1265 µM) was 1, the relative viability (NCI-H23; first compound 0.4 µM) was 0.939 and the relative viability (NCI-H23; first compound 1.265 µM) was 0.616. It also gave a relative viability (NCI-H2228; first compound 0.04 µM) of 0.783, a relative viability (NCI-H2228; first compound 0.1265 µM) of 0.915 and a relative viability (NCI-H2228; first compound 0.4 µM) of 0.871. The relative viability (NCI-H2228; first compound 1.265 µM) was 0.576, the relative viability (HCC-827; first compound 0.04 µM) was 0.914 and the relative viability (HCC-827; first compound 0.1265 µM) was 1.08. The relative viability (HCC-827; first compound 0.4 µM) was 0.957, the relative viability (HCC-827; first compound 1.265 µM) was 0.543 and the relative viability (CAL-12T; first compound 0.04 µM) was 1.22. For the same compound, the relative viability (CAL-12T; first compound 0.1265 µM) was 1.07, the relative viability (CAL-12T; first compound 0.4 µM) was 1.13 and the relative viability (CAL-12T; first compound 1.265 µM) was 0.997. For the same compound, the relative viability (LCLC-103H; first compound 0.04 µM) was 0.702, the relative viability (LCLC-103H; first compound 0.1265 µM) was 0.793 and the relative viability (LCLC-103H; first compound 0.4 µM) was 0.613. For the same compound, the relative viability (LCLC-103H; first compound 1.265 µM) was 0.507, the relative viability (HOP-62; first compound 0.04 µM) was 1.09 and the relative viability (HOP-62; first compound 0.1265 µM) was 1.21. For the same compound, the relative viability (HOP-62; first compound 0.4 µM) was 1.01, the relative viability (HOP-62; first compound 1.265 µM) was 0.815 and the relative viability (NCI-H460; first compound 0.04 µM) was 0.993. For the same compound, the relative viability (NCI-H460; first compound 0.1265 µM) was 1.14, the relative viability (NCI-H460; first compound 0.4 µM) was 0.962 and the relative viability (NCI-H460; first compound 1.265 µM) was 0.917. For the same compound, the relative viability (NCI-H1355; first compound 0.04 µM) was 1.08, the relative viability (NCI-H1355; first compound 0.1265 µM) was 0.992 and the relative viability (NCI-H1355; first compound 0.4 µM) was 0.957. The relative viability (NCI-H1355; first compound 1.265 µM) was 0.622, the relative viability (EMC-BAC-2; first compound 0.04 µM) was 0.997 and the relative viability (EMC-BAC-2; first compound 0.1265 µM) was 1.08. The relative viability (EMC-BAC-2; first compound 0.4 µM) was 0.97, the relative viability (EMC-BAC-2; first compound 1.265 µM) was 0.857 and the relative viability (COR-L 105; first compound 0.04 µM) was 1.1. For the same compound, the relative viability (COR-L 105; first compound 0.1265 µM) was 1.43, the relative viability (COR-L 105; first compound 0.4 µM) was 0.886 and the relative viability (COR-L 105; first compound 1.265 µM) was 1.22. It also gave a relative viability (NCI-H1755; first compound 0.04 µM) of 0.913, a relative viability (NCI-H1755; first compound 0.1265 µM) of 1.02 and a relative viability (NCI-H1755; first compound 0.4 µM) of 0.939. The relative viability (NCI-H1755; first compound 1.265 µM) was 0.861, the relative viability (HARA; first compound 0.04 µM) was 0.836 and the relative viability (HARA; first compound 0.1265 µM) was 0.952. It also gave a relative viability (HARA; first compound 0.4 µM) of 0.811, a relative viability (HARA; first compound 1.265 µM) of 0.796 and a relative viability (NCI-H1975; first compound 0.04 µM) of 0.964. For the same compound, the relative viability (NCI-H1975; first compound 0.1265 µM) was 0.941, the relative viability (NCI-H1975; first compound 0.4 µM) was 0.985 and the relative viability (NCI-H1975; first compound 1.265 µM) was 0.883. For the same compound, the relative viability (NCI-H1915; first compound 0.04 µM) was 1.13, the relative viability (NCI-H1915; first compound 0.1265 µM) was 1.11 and the relative viability (NCI-H1915; first compound 0.4 µM) was 1.03. The relative viability (NCI-H1915; first compound 1.265 µM) was 0.783, the relative viability (NCI-H1437; first compound 0.04 µM) was 1.25 and the relative viability (NCI-H1437; first compound 0.1265 µM) was 1.19. It also gave a relative viability (NCI-H1437; first compound 0.4 µM) of 1.11, a relative viability (NCI-H1437; first compound 1.265 µM) of 0.923 and a relative viability (SK-LU-1; first compound 0.04 µM) of 0.782. The relative viability (SK-LU-1; first compound 0.1265 µM) was 0.875, the relative viability (SK-LU-1; first compound 0.4 µM) was 0.705 and the relative viability (SK-LU-1; first compound 1.265 µM) was 0.51. It also gave a relative viability (A-427; first compound 0.04 µM) of 0.994, a relative viability (A-427; first compound 0.1265 µM) of 1.12 and a relative viability (A-427; first compound 0.4 µM) of 1.01. The relative viability (A-427; first compound 1.265 µM) was 0.786.
